Entries after “also recorded” stand apart in the source; their conditions may differ.
Legend:
PP2Cβ = biological target: T1, PP2Cβ (Bos taurus, UniProt O62830); experiment: Dephosphorylation of phospho-BAD by PP2Cβ, Mg2+-dependence; assay type: biochemical, bovine
T1 construct: inferred from the Ni-NTA purification; made in house; host or cells: E. coli
T1 sequence (O62830 1-484): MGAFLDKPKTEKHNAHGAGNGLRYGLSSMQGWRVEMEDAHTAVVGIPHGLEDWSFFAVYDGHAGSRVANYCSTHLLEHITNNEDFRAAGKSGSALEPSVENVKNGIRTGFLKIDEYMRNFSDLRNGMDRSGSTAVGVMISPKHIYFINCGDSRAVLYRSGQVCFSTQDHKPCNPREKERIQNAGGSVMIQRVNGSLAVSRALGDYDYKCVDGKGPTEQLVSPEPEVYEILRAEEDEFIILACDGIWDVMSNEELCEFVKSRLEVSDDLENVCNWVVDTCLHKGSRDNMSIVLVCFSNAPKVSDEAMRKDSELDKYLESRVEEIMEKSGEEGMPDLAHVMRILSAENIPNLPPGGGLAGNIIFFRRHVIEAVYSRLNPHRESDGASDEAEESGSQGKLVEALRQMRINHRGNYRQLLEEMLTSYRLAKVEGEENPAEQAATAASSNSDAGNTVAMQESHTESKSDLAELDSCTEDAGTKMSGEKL
Method: Dephosphorylation of phospho-BAD by PP2C is assayed in vitro using recombinant BAD (Lizcano, J. M., Morrice, N. and Cohen, P. (2000) Regulation of Bad by cAMP-dependent protein kinase is mediated via phosphorylation of a novel site, Ser^155. Biochem. J. Vol: 349, 547-557) kindly provided by Sir Philip Cohen, Dundee, UK. cDNA encoding PP2Cβ from bovine brain was expressed in E. Coli and purified using Ni-NTA-Sepharose. (J. Neurosci. Res. 51, 328-338 (1998) Protein phosphatase type-2C isozymes present in vertebrate retinae: purification, characterization, and localization in photoreceptors.)
Incubations were carried out for 30 min at 37° C. The reaction mixture (12 μl) contained 12 μg BAD (GST-fusion protein) (Lizcano et al. (2000) Biochem. J. 349, 547-557), 0.55 μg PKA (Sigma), 1 μM ATP, 15 μCi [γ-^32P]ATP, 5 mM MgCl2 and 25 mM Tris/HCl pH 7.5. After incubation at 37° C. for 30 min, hot and cold ATP were removed by centrisep centrifugation columns. […]
Dephosphorylation of [^32P]BAD depends on the time of incubating PP2Cβ together with the substrate phospho-BAD which is cleaved to give phosphate and BAD. The concentration of [^32P]BAD is measured in this assay, therefore intensive spots on the X-ray sensitive film represent high concentrations of [^32P]BAD, in other words low activity of the enzyme PP2Cβ.

PP2C = conditions: cited from earlier work

SMILES	Effect of Mg2+ ions on enzymatic activity of PP2C (dephosphorylation of BAD) (PP2Cβ)	Sensitivity of PP2C activity to inhibitor (PP2C)
[Mg+2] [Mg^2+]	requires the presence of Mg^2+-ions; also recorded: increases the enzymatic activity	–
C=C1[C@@H](O)[C@@H]2O[C@]3(CC[C@H](/C=C/[C@@H](C)[C@@H]4CC(C)=C[C@@]5(O[C@H](C[C@@](C)(O)C(=O)O)CC[C@H]5O)O4)O3)CC[C@H]2O[C@@H]1[C@@H](O)C[C@H](C)[C@H]1O[C@@]2(CCCCO2)CC[C@H]1C [okadaic acid]	–	not sensitive

Reference: US20030044875A1, “Substrate for PP2C” (Schering AG, priority 2001, published 2003)
